The data set in a line: Pharmacokinetics of Compound A and Regorafenib in rats. Type of data set: in vivo. As to conditions: compared to Regorafenib.

Take `[2H]C([2H])([2H])NC(=O)c1cc(Oc2ccc(NC(=O)Nc3ccc(Cl)c(C(F)(F)F)c3)c(F)c2)ccn1` [Compound A, 4-(4-(3-(4-chloro-3-(trifluoromethyl)phenyl)ureido)-3-fluorophenoxy)-N-d3-methylpicolinamide]: the T1/2 result is recorded as “prolonged T1/2” and the clearance entry is reported as “significant slower clearance”. Moreover, where the note is “FIG. 1, rats”, the pharmacokinetic profile result is “better pharmacokinetic profile”. Besides, where the note is “oral administration route at equal dose”, the exposure result is “improved exposure”.

Source of the values: US20120077851A1, “Urea Derivatives as Kinase Inhibitors” (MEDOLUTION LIMITED, priority 2009, published 2012).
